# Where a name gives a salt, the structure may show the parent alone.
# Molecular target: IKZF2 (Helios) (Homo sapiens, UniProt Q96SW2+Q9UKS7)
# Assay: Prolabel quantification of IKZF2 protein levels in 293GT cells
# Type: cell-based
# Details: 24 h, Pro-label assay, 293GT cells, 10 μM, read-out: IKZF2 % protein reduction at 10 μM, 24 h
# IKZF2 (Helios), sequence (Q9UKS7 whole entry): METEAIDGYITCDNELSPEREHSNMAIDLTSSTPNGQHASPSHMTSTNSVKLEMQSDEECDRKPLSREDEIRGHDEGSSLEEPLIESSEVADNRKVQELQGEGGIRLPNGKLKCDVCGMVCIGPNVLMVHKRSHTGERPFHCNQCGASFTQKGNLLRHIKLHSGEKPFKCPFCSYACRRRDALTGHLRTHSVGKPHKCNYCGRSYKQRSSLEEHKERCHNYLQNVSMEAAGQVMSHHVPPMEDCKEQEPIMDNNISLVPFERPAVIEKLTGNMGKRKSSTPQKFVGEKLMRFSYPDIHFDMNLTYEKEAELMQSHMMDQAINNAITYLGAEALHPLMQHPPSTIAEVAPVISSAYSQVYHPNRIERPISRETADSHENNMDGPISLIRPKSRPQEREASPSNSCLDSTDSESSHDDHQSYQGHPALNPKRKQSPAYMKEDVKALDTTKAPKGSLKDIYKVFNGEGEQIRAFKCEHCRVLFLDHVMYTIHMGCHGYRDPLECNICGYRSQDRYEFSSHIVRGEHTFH
# IKZF2 (Helios), sequence (Q96SW2 whole entry): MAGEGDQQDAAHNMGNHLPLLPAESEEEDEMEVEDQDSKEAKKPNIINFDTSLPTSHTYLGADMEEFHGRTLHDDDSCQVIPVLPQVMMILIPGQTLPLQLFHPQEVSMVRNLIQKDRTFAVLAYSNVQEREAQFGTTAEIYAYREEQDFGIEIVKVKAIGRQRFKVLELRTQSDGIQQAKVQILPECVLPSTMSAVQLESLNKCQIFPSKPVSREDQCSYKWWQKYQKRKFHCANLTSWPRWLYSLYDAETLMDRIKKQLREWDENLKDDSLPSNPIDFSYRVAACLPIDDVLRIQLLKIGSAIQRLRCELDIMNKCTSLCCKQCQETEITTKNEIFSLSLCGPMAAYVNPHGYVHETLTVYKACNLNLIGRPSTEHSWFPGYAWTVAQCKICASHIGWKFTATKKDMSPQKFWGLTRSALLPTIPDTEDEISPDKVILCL
# IKZF2 (Helios), sequence (Q16531 whole entry partner): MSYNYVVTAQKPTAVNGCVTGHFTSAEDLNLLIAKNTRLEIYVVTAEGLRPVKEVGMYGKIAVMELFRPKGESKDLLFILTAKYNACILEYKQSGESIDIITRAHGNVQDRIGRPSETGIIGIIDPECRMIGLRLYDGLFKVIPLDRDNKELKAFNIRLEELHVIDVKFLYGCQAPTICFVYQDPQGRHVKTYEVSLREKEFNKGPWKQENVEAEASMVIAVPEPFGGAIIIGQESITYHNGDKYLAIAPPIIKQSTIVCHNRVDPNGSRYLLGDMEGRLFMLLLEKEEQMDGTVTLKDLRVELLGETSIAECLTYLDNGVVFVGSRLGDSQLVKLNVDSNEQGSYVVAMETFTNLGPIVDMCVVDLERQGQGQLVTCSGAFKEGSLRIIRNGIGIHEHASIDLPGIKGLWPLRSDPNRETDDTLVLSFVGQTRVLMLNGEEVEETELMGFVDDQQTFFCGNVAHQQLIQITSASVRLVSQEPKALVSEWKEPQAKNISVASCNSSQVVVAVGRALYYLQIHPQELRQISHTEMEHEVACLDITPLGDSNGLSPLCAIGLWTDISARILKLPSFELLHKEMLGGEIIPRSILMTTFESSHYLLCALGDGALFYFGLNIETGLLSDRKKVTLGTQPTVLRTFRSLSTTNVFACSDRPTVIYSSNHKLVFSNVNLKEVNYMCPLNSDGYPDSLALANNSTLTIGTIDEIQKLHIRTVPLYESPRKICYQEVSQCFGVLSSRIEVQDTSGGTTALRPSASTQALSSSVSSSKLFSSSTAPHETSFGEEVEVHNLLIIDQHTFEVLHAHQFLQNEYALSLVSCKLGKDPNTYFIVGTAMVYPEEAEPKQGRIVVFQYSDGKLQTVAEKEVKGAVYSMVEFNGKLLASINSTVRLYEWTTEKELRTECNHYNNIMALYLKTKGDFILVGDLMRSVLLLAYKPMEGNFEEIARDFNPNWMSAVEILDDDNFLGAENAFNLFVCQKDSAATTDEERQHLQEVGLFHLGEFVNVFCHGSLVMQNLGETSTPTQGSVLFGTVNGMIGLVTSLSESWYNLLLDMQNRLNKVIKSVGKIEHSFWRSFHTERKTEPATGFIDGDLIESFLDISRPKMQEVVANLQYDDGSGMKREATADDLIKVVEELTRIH
row,IKZF2 % protein reduction at 10 µM,Structure (SMILES)
1,65%,N[C@H]1CCC[C@@H]1Oc1ccc2c(c1)CN(C1CCC(=O)NC1=O)C2=O (stereo partly shown) [Cmpd I-12]
2,10%,"O=C1CCC(N2Cc3cc(O[C@H]4CCCC[C@H]4NCc4ccccc4)ccc3C2=O)C(=O)N1 (stereo partly drawn) [I-2, 3-(5-(((1S,2R)-2-(benzylamino)cyclohexyl)oxy)-1-oxoisoindolin-2-yl)piperidine-2,6-dione]"
3,5%,"O=C1CCC(N2Cc3cc(O[C@@H]4CCC[C@H]4O)ccc3C2=O)C(=O)N1 (stereo partly drawn) [I-6, 3-(5-(((1R,2R)-2-hydroxycyclopentyl)oxy)-1-oxoisoindolin-2-yl)piperidine-2,6-dione]"
4,85%,"CC(C)CN[C@H]1CCCC[C@@H]1Oc1ccc2c(c1)CN(C1CCC(=O)NC1=O)C2=O (stereo partly drawn) [I-7, 3-(5-(((1S,2S)-2-(isobutylamino)cyclohexyl)oxy)-1-oxoisoindolin-2-yl)piperidine-2,6-dione]"
5,0%,"O=C1CCC(N2Cc3cc(O[C@H]4CCC[C@@H]4OCc4ccccc4)ccc3C2=O)C(=O)N1 (stereo partly drawn) [I-9, 3-(5-(((1S,2S)-2-(benzyloxy)cyclopentyl)oxy)-1-oxoisoindolin-2-yl)piperidine-2,6-dione]"
6,75%,"O=C1CCC(N2Cc3cc(O[C@H]4CCC[C@@H]4NCc4ccccc4)ccc3C2=O)C(=O)N1 (stereo partly drawn) [I-20, 3-(5-(((1S,2S)-2-(benzylamino)cyclopentyl)oxy)-1-oxoisoindolin-2-yl)piperidine-2,6-dione]"
7,30%,"O=C1CCC(N2Cc3cc(O[C@H]4CCOC[C@@H]4NCc4ccccc4)ccc3C2=O)C(=O)N1 (stereo partly drawn) [I-21, 3-(5-(((3S,4S)-3-(benzylamino)tetrahydro-2H-pyran-4-yl)oxy)-1-oxoisoindolin-2-yl)piperidine-2,6-dione]"
8,80%,"O=C1CCC(N2Cc3cc(O[C@H]4CCCC[C@@H]4NCc4ccccc4)ccc3C2=O)C(=O)N1 (stereo partly drawn) [I-22, 3-(5-(((1S,2S)-2-(benzylamino)cyclohexyl)oxy)-1-oxoisoindolin-2-yl)piperidine-2,6-dione]"
9,80%,"C[C@@H](N[C@H]1CCCC[C@@H]1Oc1ccc2c(c1)CN(C1CCC(=O)NC1=O)C2=O)c1ccccc1 (stereo partly drawn) [I-23, 3-(1-oxo-5-(((1S,2S)-2-(((R)-1-phenylethyl)amino)cyclohexyl)oxy)isoindolin-2-yl)piperidine-2,6-dione]"
10,0%,"CO[C@H]1CCC[C@@H]1Oc1ccc2c(c1)CN(C1CCC(=O)NC1=O)C2=O (stereo partly drawn) [I-26, 3-(5-(((1S,2S)-2-methoxycyclopentyl)oxy)-1-oxoisoindolin-2-yl)piperidine-2,6-dione]"
11,50%,"O=C1CCC(N2Cc3cc(O[C@H]4CCCC[C@@H]4O)ccc3C2=O)C(=O)N1 (stereo partly drawn) [I-27, 3-(5-(((1S,2S)-2-hydroxycyclohexyl)oxy)-1-oxoisoindolin-2-yl)piperidine-2,6-dione]"
12,80%,"CCN[C@H]1CCC[C@@H]1Oc1ccc2c(c1)CN(C1CCC(=O)NC1=O)C2=O (stereo partly drawn) [I-29, 3-(5-(((1S,2S)-2-(ethylamino)cyclopentyl)oxy)-1-oxoisoindolin-2-yl)piperidine-2,6-dione]"

# Second part, the compound before the results:
row,Structure (SMILES),IKZF2 % protein reduction at 10 µM
1,"O=C1CCC(N2Cc3cc(OC4CCCC4N4CCCC5(CCC5)C4)ccc3C2=O)C(=O)N1 (single isomer, unassigned) [I-179, 3-(5-((2-(6-azaspiro[3.5]nonan-6-yl)cyclopentyl)oxy)-1-oxoisoindolin-2-yl)piperidine-2,6-dione]",85%
2,"O=C1CCC(N2Cc3cc(OC4CCCC4N4CCC5(CCOCC5)C4)ccc3C2=O)C(=O)N1 (single isomer, unassigned) [I-183, 3-(5-((2-(8-oxa-2-azaspiro[4.5]decan-2-yl)cyclopentyl)oxy)-1-oxoisoindolin-2-yl)piperidine-2,6-dione]",84%
3,"CO[C@@H]1CCN(C2CCCC2Oc2ccc3c(c2)CN(C2CCC(=O)NC2=O)C3=O)C1 (single isomer, unassigned) [I-192]",77%
4,"CO[C@H]1CCN(C2CCCC2Oc2ccc3c(c2)CN(C2CCC(=O)NC2=O)C3=O)C1 (single isomer, unassigned) [I-193]",79%
5,"O=C1CCC(N2Cc3cc(O[C@H]4CCC[C@@H]4N4CCCOCC4)ccc3C2=O)C(=O)N1 (stereo in doubt) [I-185, 3-(5-(((1S,2S)-2-(1,4-oxazepan-4-yl)cyclopentyl)oxy)-1-oxoisoindolin-2-yl)piperidine-2,6-dione]",66%
6,"CCN(CC(F)F)[C@H]1CCC[C@@H]1Oc1ccc2c(c1)CN(C1CCC(=O)NC1=O)C2=O (stereo partly drawn) [I-1, 3-(5-(((1S,2S)-2-((2,2-difluoroethyl)(ethyl)amino)cyclopentyl)oxy)-1-oxoisoindolin-2-yl)piperidine-2,6-dione]",10%
7,"CO[C@H]1CCCC[C@@H]1Oc1ccc2c(c1)CN(C1CCC(=O)NC1=O)C2=O (stereo partly drawn) [I-4, 3-(5-(((1S,2S)-2-methoxycyclohexyl)oxy)-1-oxoisoindolin-2-yl)piperidine-2,6-dione]",25%
8,"O=C1CCC(N2Cc3cc(O[C@H]4CCC[C@@H]4N4CC(O)C4)ccc3C2=O)C(=O)N1 (stereo partly drawn) [I-5, 3-(5-(((1S,2S)-2-(3-hydroxyazetidin-1-yl)cyclopentyl)oxy)-1-oxoisoindolin-2-yl)piperidine-2,6-dione]",60%
9,"O=C1CCC(N2Cc3cc(O[C@H]4CCC[C@@H]4N4CCC(F)(F)CC4)ccc3C2=O)C(=O)N1 (stereo partly drawn) [I-8, 3-(5-(((1S,2S)-2-(4,4-difluoropiperidin-1-yl)cyclopentyl)oxy)-1-oxoisoindolin-2-yl)piperidine-2,6-dione]",50%
10,"CCN(CC)[C@@H]1CCC[C@@H]1Oc1ccc2c(c1)CN(C1CCC(=O)NC1=O)C2=O (stereo partly drawn) [I-10, 3-(5-(((1S,2R)-2-(diethylamino)cyclopentyl)oxy)-1-oxoisoindolin-2-yl)piperidine-2,6-dione]",0%
11,"O=C1CCC(N2Cc3cc(O[C@H]4CCCC[C@@H]4NCC4(C(F)(F)F)CC4)ccc3C2=O)C(=O)N1 (stereo partly drawn) [I-11, 3-(1-oxo-5-(((1S,2S)-2-(((1-(trifluoromethyl)cyclopropyl)methyl)amino)cyclohexyl)oxy)isoindolin-2-yl)piperidine-2,6-dione]",75%
12,"CCN(CC)[C@H]1CCC[C@@H]1Oc1ccc2c(c1)CN(C1CCC(=O)NC1=O)C2=O (stereo partly drawn) [I-13, 3-(5-(((1S,2S)-2-(diethylamino)cyclopentyl)oxy)-1-oxoisoindolin-2-yl)piperidine-2,6-dione]",85%
13,"CCN(CC)[C@H]1CCCC[C@@H]1Oc1ccc2c(c1)CN(C1CCC(=O)NC1=O)C2=O (stereo partly drawn) [I-14, 3-(5-(((1S,2S)-2-(diethylamino)cyclohexyl)oxy)-1-oxoisoindolin-2-yl)piperidine-2,6-dione]",60%
14,"O=C1CCC(N2Cc3cc(O[C@H]4CCC[C@@H]4N4CC5CCC(C5)C4)ccc3C2=O)C(=O)N1 (stereo partly drawn) [I-16, 3-(5-(((1S,2S)-2-(3-azabicyclo[3.2.1]octan-3-yl)cyclopentyl)oxy)-1-oxoisoindolin-2-yl)piperidine-2,6-dione]",85%
15,"O=C1CCC(N2Cc3cc(O[C@H]4CCC[C@@H]4N4CCC5(CC4)OCCO5)ccc3C2=O)C(=O)N1 (stereo partly drawn) [I-17, 3-(5-(((1S,2S)-2-(1,4-dioxa-8-azaspiro[4.5]decan-8-yl)cyclopentyl)oxy)-1-oxoisoindolin-2-yl)piperidine-2,6-dione]",80%
16,"O=C1CCC(N2Cc3cc(O[C@H]4CCC[C@@H]4N4CC5CCC(C4)O5)ccc3C2=O)C(=O)N1 (stereo partly drawn) [I-18, 3-(5-(((1S,2S)-2-(8-oxa-3-azabicyclo[3.2.1]octan-3-yl)cyclopentyl)oxy)-1-oxoisoindolin-2-yl)piperidine-2,6-dione]",50%
17,"CCN(CCF)[C@H]1CCC[C@@H]1Oc1ccc2c(c1)CN(C1CCC(=O)NC1=O)C2=O (stereo partly drawn) [I-24, 3-(5-(((1S,2S)-2-(ethyl(2-fluoroethyl)amino)cyclopentyl)oxy)-1-oxoisoindolin-2-yl)piperidine-2,6-dione]",80%
18,"CCN(C(C)C)[C@H]1CCC[C@@H]1Oc1ccc2c(c1)CN(C1CCC(=O)NC1=O)C2=O (stereo partly drawn) [I-25, 3-(5-(((1S,2S)-2-(ethyl(isopropyl)amino)cyclopentyl)oxy)-1-oxoisoindolin-2-yl)piperidine-2,6-dione]",80%
19,"N[C@@H]1CCCC[C@@H]1Oc1ccc2c(c1)CN(C1CCC(=O)NC1=O)C2=O (stereo partly drawn) [I-30, 3-(5-(((1S,2R)-2-aminocyclohexyl)oxy)-1-oxoisoindolin-2-yl)piperidine-2,6-dione]",0%
20,"O=C1CCC(N2Cc3cc(O[C@H]4CCC[C@@H]4N(CC4CC4)CC4CC4)ccc3C2=O)C(=O)N1 (stereo partly drawn) [I-31, 3-(5-(((1S,2S)-2-(bis(cyclopropylmethyl)amino)cyclopentyl)oxy)-1-oxoisoindolin-2-yl)piperidine-2,6-dione]",90%
21,"O=C1CCC(N2Cc3cc(O[C@H]4CCC[C@@H]4N4CCCCC4)ccc3C2=O)C(=O)N1 (stereo partly drawn) [I-32, 3-(1-oxo-5-(((1S,2S)-2-(piperidin-1-yl)cyclopentyl)oxy)isoindolin-2-yl)piperidine-2,6-dione]",85%
22,"O=C1CCC(N2Cc3cc(O[C@H]4CCC[C@@H]4N4CCOCC4)ccc3C2=O)C(=O)N1 (stereo partly drawn) [I-33, 3-(5-(((1S,2S)-2-morpholinocyclopentyl)oxy)-1-oxoisoindolin-2-yl)piperidine-2,6-dione]",55%

# Same assay, conditions: 24 h, read-out: IKZF2 % protein reduction at 10 μM, 24 h
row,Structure (SMILES),IKZF2 % protein reduction at 10 µM
1,"O=C1CCC(N2Cc3cc(O[C@H]4CCC[C@@H]4N4CCSCC4)ccc3C2=O)C(=O)N1 (stereo in doubt) [I-184, 3-(1-oxo-5-(((1S,2S)-2-thiomorpholinocyclopentyl)oxy)isoindolin-2-yl)piperidine-2,6-dione]",38%
2,"N[C@H]1CCCC[C@@H]1Oc1ccc2c(c1)CN(C1CCC(=O)NC1=O)C2=O (stereo partly drawn) [I-15, 3-(5-(((1S,2S)-2-aminocyclohexyl)oxy)-1-oxoisoindolin-2-yl)piperidine-2,6-dione hydrochloride]",50%
3,"N[C@@H]1CCC[C@@H]1Oc1ccc2c(c1)CN(C1CCC(=O)NC1=O)C2=O (stereo partly drawn) [I-28, 3-(5-(((1S,2R)-2-aminocyclopentyl)oxy)-1-oxoisoindolin-2-yl)piperidine-2,6-dione hydrochloride]",0%
